# Reference: patent publication US20020049157A1, “Use of proteasome inhibitors for treating cancer, inflammation, autoimmune disease, graft rejection and septic shock” (priority 1998, published 2002)
# Tests used:
# Jurkat cells = test: Electron microscopy of Jurkat cells; assay type: cell-based; details: LAC 6 μM; 24 h
# Method: E and F: Morphology of Jurkat cell treated with LAC. Jurkat cells were cultured in the absence (E) or presence (F) of LAC (6 μM) for 24 h and were evaluated with EM. Arrows indicate condensed nuclei.
# Electron microscopy was also employed to examine the mode of cell death induced by LAC. The resting T cells (cells cultured in medium, FIG. 3A), activated T cells (40 h after PHA activation, FIG. 3C), and Jurkat cells (FIG. 3E) were all healthy looking. […] The resting T cells treated with LAC (10 μM) for 24 h were still healthy (FIG. 3B).
# T cells and Jurkat cells were examined by electron microscopy as described by Tsao and Duguid (Tsao et al., 1987, Exp. Cell Res. 168:365).
# CDK2 = test: Immunoprecipitation kinase assay, CDK2; assay type: cell-based, human; details: PHA-activated T cells; LAC 10 μM added once at 0 h; at 16 h and more so at 40 h
# Method: (§1) Tonsillar T cells were activated with PHA (2 μg/ml) for a period as indicated in each graph. LAC (10 μM) was added once at 0 h. The cells were harvested at 16 h, 24 h, or 40 h as indicated. An equal amount of lysate protein ([…]) was precipitated with rabbit anti-CDK4, anti-CDK2 or anti-Cyclin E antisera (2.5 μg Ab/sample). The immune complexes were assayed for their kinase activities using histone H1 as a substrate. (A) CDK4 kinase activity. (B) CDK2 kinase activity. (C) Cyclin E-associated CDK activity. The membrane in (C) was subsequently hybridized with anti-Cyclin E (1 μg/ml) followed by ^125I-protein A for the evaluation of the protein level of Cyclin E.
# Therefore, the proteasome activity during the early activation stage (0 h-16 h) is essential for the activation of the kinase at the G1 phase and early S phase. The unchanged CDK4 activity in the LAC-treated cells at 40 h served as an internal control for the repressed CDK2 activity and indicating the latter was not due to the viability problem.
# Lymphocytes were lysed by a lysis buffer as used in the immunoblotting (Chen et al., 1996, supra), and cleared lysates were quantitated for their protein content. […] The proteins were then transferred to PVDF membranes and the signals were detected by autoradiography.
# Cyclin E = test: Immunoblotting of Cyclin E level in T cells; assay type: cell-based, human
# Method: as §1
# Tonsillar T cells were stimulated with PHA (2 μg/ml) for 40 h in the presence of hydroxyurea (1 mM), and these cells were blocked at the G1/S boundary (G1 block). The synchronization was released by washing out hydroxyurea, and the cells were recultured in medium containing 2 μg/ml PHA in the absence or presence of LAC ([…], added once at the time of the release). The cells were harvested at 6 h and 22 h post the G1/S block. […]
# Immunoblotting was employed to evaluate the levels of Cyclin E, cyclin A, p21^Cip1 and p27^Kip1. […] The cleared lysates were quantitated for protein concentrations. […] The signals on the membrane were detected by [^125I]-protein A followed by autoradiography.
# nitric oxide synthase = test: Northern blot of nitric oxide synthase expression in macrophages; assay type: cell-based, mouse; details: 2 μg/ml LPS
# Method: Nitric oxide synthase expression was measured with Northern blot analysis.
# BALB/c mice were injected i.p. with 3 ml of 3% thioglycollate broth. Three days later, peritoneal exudate macrophages of the mice were harvested and washed at 170 g for 10 min at 4° C. […]
# The expression of inducible nitric oxide synthase at the mRNA level was analyzed by Northern blot as described in our previous publication (Shan et al., 1994, supra). After an overnight culture, the mouse macrophages were harvested and their total cellular RNA was extracted with the guanidine/CsCl method. The RNA (10 μg/lane) was resolved in 1% agarose-formaldehyde gels and blotted onto nylon membranes. A 562-bp fragment corresponding to the mouse iNOS cDNA (Xie et al., 1992, Science 256:225) was obtained by reverse transcription/PCR using the mouse macrophages total RNA as templates. The fragment was labeled with ^32p with random primers and used as a probe for the Northern blot.
smiles,measurement,setting,value
"CC(=O)N[C@@H](CSC(=O)[C@]1([C@@H](O)C(C)C)NC(=O)[C@H](C)[C@@H]1O)C(=O)O [LAC, lactacystin]",nuclear condensation by electron microscopy,Jurkat cells,frequently observed
same,CDK2 kinase activity,CDK2,significantly inhibited
same,decline of Cyclin E level after the G1/S boundary,"Cyclin E; PHA plus hydroxyurea block, released, LAC added at release, 6 h and 22 h",decline was prevented
same,Cyclin E protein level,"Cyclin E; PHA-activated T cells, LAC added once at 0 h",increased
same,expression of mRNA for NO synthase,nitric oxide synthase,decreases the expression of mRNA for NO synthase
